Test results taken from US8470527B2, “Method of inhibiting HIV-1 replication by administering modified GP41 C34 peptide derivatives with enhanced pharmacological properties” (Frontier Biotechnologies, Co., Ltd., priority 2002, dated 2013).
Where two headings read alike, the source gives them in different places.

Legend:
HIV-1IIIB = assay: Cellular anti-HIV assay in fresh human PBMC cultures (reverse transcriptase activity and/or p24 readout); format: cell-based
Protocol: The four modified peptides FB006M, FB007M, FB010M, and FB010KM were conjugated to human serum albumin (HSA) by mixing prior to the antiviral test. The results appear in Table 8 below, where IC50 value is the 50% viral inhibition drug concentration, and TC50 value is the 50% cytotoxicity drug concentration.
Pretitered aliquots of HIV-1IIIB was removed from the freezer (−80° C.) and thawed rapidly to room temperature in a biological safety cabinet immediately before use.
Fresh human PBMCs were isolated from screened donors, seronegative for HIV and HBV (Interstate Blood Bank, Inc.; Memphis, Tenn.). Cells were pelleted/washed 2-3 times by low speed centrifugation and resuspension in PBS to remove contaminating platelets. The Leukophoresed blood was then diluted 1:1 with Dulbecco's phosphate buffered saline (PBS) and layered over 14 mL of Lymphocyte Separation Medium in a 50 mL centrifuge tube and then centrifuged for 30 minutes at 600×g. Banded PBMCs were gently aspirated from the resulting interface and subsequently washed 2× with PBS by low speed centrifugation. After the final wash, cells were enumerated by trypan blue exclusion and re-suspended at 1×10^7 cells/mL in RPMI 1640 supplemented with 15% Fetal Bovine Serum (FBS), 2 mM L-glutamine, 4 μg/mL Phytohemagglutinin (PHA-P, Sigma). The cells were allowed to incubate for 48-72 hours at 37° C. After incubation, PBMCs were centrifuged and resuspended in RPMI 1640 with 15% FBS, 2 mM L-glutamine, 100 U/mL penicillin, 100 μg/mL streptomycin, 10 μg/mL gentamycin, and 20 U/mL recombinant human IL-2 (R&D Systems, Inc). […]
For the standard PBMC assay, PHA-P stimulated cells from at least two normal donors were pooled, diluted in fresh medium to a final concentration of 1×10^6 cells/mL, and plated in the interior wells of a 96 well round bottom microplate at 50 μL/well (5×10^4 cells/well). […] Following removal of supernatant samples, compound cytotoxicity was measured by addition of MTS to the plates for determination of cell viability. […]

[1] = Cytotoxicity in PBMCs by MTS (secondary cytotoxicity assay, high-test concentration 25 μM); format: cell-based; settings: human PBMCs, MTS cell viability; modified peptides conjugated with HSA; FB005, FB006 unmodified; read-out: TC50 (50% cytotoxicity drug concentration)
Protocol: For the standard PBMC assay, PHA-P stimulated cells from at least two normal donors were pooled, diluted in fresh medium to a final concentration of 1×10^6 cells/mL, and plated in the interior wells of a 96 well round bottom microplate at 50 μL/well (5×10^4 cells/well). Each plate contains virus/cell control wells (cells plus virus), experimental wells (drug plus cells plus virus) and compound control wells ([…], necessary for MTS monitoring of cytotoxicity). Since HIV-1 is not cytopathic to PBMCs, this allows the use of the same assay plate for both antiviral activity and cytotoxicity measurements. Test drug dilutions were prepared at a 2× concentration in microtiter tubes and 100 μL of each concentration was placed in appropriate wells using the standard format. 50 μL of a predetermined dilution of virus stock was placed in each test well (final MOI≈0.1). The PBMC cultures were maintained for seven days following infection at 37° C., 5% CO2, after which cell-free supernatant samples were collected for analysis of reverse transcriptase activity and/or HIV p24 content. Following removal of supernatant samples, compound cytotoxicity was measured by addition of MTS to the plates for determination of cell viability. Wells were also examined microscopically and any abnormalities noted. […]

[2] = HIV-1IIIB in fresh human PBMCs, seven days, FB006M, FB007M, FB010M, FB010KM conjugated with HSA prior to test, FB005, FB006 unmodified peptide, read-out: IC50 (50% viral inhibition drug concentration)

## Ac-SLEQIWNNMTWEEWDREINNYTELIHELIEESQNQQEKNEQELL-NH2 [FB005]
HIV-1IIIB; [2]
  IC50: 0.93 nM
[1]
  CC50 at 7 days: 14300 nM

## Ac-WEEWDREINNYTKLIHELIEESQNQQEKNEQELL-NH2 [FB006]
HIV-1IIIB; FB006M and FB007M linked to serum albumin, read-out: IC50 (drug concentration for achieving 50% viral inhibition)
  IC50: 1.4 nM
HIV-1IIIB; [2]
  IC50: 1.41 nM
[1]
  CC50 at 7 days: 15900 nM
